The source of these data is patent publication US11008314B2, “Compounds and methods for modulating interleukin-2-inducible t-cell kinase” (CORVUS PHARMACEUTICALS, INC., priority 2016, dated 2021).

Molecules are shown by their SMILES. Some results are limits rather than exact numbers.

Series [1] concerns the target JAK3 (Homo sapiens (Human), UniProt P52333). Kind of series: IC50 against JAK3. In kind it is biochemical.
Series [2] in a line: Mouse PO PK. The settings on record: in vivo, 10 mg/kg, PO 10 mpk.
Series [3] is described as follows: Rat PO PK. To be noted: in vivo, 6 mg/kg, PO 6 mpk.
The target of series [4] is ITK (Homo sapiens (Human), UniProt Q08881). The experiment in a line: IC50 against ITK. In kind it is biochemical.
Chain of ITK (Q08881 whole entry): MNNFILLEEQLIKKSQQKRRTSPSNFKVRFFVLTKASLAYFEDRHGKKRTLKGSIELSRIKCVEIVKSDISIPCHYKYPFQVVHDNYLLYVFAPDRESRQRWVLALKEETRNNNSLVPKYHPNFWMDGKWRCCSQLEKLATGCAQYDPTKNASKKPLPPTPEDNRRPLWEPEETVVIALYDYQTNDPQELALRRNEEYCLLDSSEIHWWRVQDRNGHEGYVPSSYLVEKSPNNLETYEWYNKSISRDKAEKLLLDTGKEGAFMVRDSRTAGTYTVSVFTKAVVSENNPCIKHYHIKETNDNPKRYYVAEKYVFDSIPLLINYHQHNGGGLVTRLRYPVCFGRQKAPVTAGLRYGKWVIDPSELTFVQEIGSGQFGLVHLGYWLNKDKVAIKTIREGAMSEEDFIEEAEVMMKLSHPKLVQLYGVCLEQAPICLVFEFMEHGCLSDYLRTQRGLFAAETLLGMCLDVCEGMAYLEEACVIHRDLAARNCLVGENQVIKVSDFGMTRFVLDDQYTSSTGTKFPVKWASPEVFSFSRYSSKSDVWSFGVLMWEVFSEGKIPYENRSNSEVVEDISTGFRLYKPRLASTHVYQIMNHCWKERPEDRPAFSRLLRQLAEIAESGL
The target in series [5] is BTK (Homo sapiens (Human), UniProt Q06187). The experiment in a line: IC50 against BTK. In kind it is biochemical.
Chain of BTK (Q06187 whole entry, species assumed): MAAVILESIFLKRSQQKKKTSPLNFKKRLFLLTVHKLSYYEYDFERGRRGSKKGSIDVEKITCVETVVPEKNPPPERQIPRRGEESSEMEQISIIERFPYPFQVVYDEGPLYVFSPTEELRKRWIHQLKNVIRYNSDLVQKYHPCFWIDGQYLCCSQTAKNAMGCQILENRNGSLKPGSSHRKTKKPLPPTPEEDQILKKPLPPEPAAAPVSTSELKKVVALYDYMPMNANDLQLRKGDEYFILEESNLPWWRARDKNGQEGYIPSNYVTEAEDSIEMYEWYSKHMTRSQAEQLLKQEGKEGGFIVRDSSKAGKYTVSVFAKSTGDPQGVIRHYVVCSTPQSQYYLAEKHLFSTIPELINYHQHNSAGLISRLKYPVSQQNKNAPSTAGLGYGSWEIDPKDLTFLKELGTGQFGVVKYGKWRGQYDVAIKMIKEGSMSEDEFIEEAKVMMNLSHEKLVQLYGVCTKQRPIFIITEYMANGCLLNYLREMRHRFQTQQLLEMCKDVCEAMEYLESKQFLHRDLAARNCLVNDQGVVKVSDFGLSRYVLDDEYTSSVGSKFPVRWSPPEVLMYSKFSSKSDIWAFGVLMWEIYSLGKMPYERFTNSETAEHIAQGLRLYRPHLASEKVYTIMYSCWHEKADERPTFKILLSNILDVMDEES
The test system of series [6] is Jurkat IL2. The experiment in a line: Jurkat IL2 IC50. The settings on record: Homo sapiens, Jurkat cells. In kind it is cell-based.
For series [7], the target named is TXK (Homo sapiens (Human), UniProt P42681). The experiment in a line: IC50 against TXK. In kind it is biochemical. The settings on record: for TXK/ITK: ratio of TXK IC50 to ITK IC50.
Chain of TXK (P42681 whole entry, species assumed): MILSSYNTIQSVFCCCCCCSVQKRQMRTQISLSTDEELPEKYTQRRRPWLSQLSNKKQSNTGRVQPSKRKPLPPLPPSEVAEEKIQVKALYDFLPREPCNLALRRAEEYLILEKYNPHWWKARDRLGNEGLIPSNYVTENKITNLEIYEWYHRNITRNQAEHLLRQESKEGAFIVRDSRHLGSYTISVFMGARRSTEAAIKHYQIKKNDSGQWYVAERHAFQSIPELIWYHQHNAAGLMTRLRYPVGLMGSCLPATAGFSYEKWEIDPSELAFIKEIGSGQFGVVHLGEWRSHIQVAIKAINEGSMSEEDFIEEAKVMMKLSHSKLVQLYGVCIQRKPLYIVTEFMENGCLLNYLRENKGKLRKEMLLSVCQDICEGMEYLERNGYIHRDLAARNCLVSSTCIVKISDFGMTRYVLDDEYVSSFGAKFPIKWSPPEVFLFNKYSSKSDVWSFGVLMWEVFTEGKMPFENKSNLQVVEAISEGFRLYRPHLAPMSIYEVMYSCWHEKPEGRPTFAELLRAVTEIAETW

What is called IC50 is the concentration needed to halve the response being measured. Read a high IC50 as weaker potency. As usually defined, the AUC(0-t) is the area under the concentration-time curve up to a stated or last time point. Higher therefore signals high exposure. For orientation: Cmax means the peak of the concentration-time curve. One may read the bioavailability as dose-corrected exposure relative to a reference, in per cent. Low values mean poor availability, high ones good availability.

Chain of JAK3 (P52333 whole entry, species assumed): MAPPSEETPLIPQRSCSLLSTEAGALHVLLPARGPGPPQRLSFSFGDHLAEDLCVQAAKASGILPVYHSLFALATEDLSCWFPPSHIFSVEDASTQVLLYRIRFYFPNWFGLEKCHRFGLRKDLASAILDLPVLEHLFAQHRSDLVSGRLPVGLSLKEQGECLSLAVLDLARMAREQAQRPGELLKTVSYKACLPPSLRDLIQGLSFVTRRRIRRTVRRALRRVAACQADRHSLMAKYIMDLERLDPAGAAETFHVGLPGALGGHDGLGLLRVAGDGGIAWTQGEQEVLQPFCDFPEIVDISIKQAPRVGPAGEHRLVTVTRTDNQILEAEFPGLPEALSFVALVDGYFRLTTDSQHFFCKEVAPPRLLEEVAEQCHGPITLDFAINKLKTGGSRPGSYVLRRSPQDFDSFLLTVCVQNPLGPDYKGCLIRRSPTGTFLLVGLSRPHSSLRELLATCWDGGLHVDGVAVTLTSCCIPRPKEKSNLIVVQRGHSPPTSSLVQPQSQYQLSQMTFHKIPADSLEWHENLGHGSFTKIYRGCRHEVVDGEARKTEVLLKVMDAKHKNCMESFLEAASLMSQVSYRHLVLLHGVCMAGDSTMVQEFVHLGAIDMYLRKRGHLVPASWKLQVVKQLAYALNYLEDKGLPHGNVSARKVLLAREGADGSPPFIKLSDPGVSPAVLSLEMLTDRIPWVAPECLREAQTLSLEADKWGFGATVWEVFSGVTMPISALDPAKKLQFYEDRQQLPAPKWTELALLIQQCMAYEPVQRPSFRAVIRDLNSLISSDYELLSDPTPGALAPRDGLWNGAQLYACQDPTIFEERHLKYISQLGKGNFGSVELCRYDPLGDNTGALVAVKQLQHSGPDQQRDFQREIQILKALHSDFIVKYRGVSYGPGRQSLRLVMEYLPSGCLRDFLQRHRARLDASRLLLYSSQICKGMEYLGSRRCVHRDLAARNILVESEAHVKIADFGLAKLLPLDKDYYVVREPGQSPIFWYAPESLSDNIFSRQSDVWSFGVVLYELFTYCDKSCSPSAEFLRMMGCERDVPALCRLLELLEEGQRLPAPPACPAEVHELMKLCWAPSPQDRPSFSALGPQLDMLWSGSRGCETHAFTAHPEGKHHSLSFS

Regarding `C=CC(=O)N1CCN(C(=O)c2cc(Sc3cnc(NC(=O)C4CC4)s3)c(C)cc2OC)C[C@H]1C` [Compound 21], the IC50 in series [1] was 100 to 1000 nM; in series [4], < 10 nM; in series [5] it was 100 to 1000 nM; in series [6] it was 53 nM; in series [7], 10 to 100 nM. Besides, the AUC(0-t) was 215 ng·h/mL in series [2] and 18.1 ng·h/mL in series [3]. Moreover, the Cmax in series [2] was found to be 292 ng/mL; in series [3] it was 148 ng/mL. For the same compound, the bioavailability stood at 10.5% in series [2] and 18.1% in series [3]. Moreover, the TXK/ITK in series [7] was 22.223.
Consider `C=CC(=O)N1CCCN(C(=O)c2cc(Sc3cnc(NC(=O)c4cccc(CN(C)C)c4)s3)c(C)cc2OC)CC1` [Compound 33], for which the IC50 in series [1] is 1000 to 10000 nM; in series [4], < 10 nM; in series [5], 100 to 1000 nM; in series [6], 100 nM; in series [7], 1000 to 10000 nM. The compound also showed an AUC(0-t) in series [3] of 0.4 ng·h/mL. Also, in series [3], the peak level (Cmax) was 15.7 ng/mL. In series [3], this compound gave a bioavailability of 0.4%. Also, the TXK/ITK in series [7] is on record as 239.91.
Regarding `C=CC(=O)N1CCCN(C(=O)c2cc(Sc3cnc(NC(=O)c4ccc(F)c(CN(C)C)c4)s3)c(C)cc2OC)CC1` [Compound 50], the IC50 is 1000 to 10000 nM in series [1]; < 10 nM in series [4]; 100 to 1000 nM in series [5]; 36 nM in series [6]; 1000 to 10000 nM in series [7]. This compound also registered an AUC(0-t) in series [3] of 3.4 ng·h/mL. The compound further showed a Cmax in series [3] of 25.2 ng/mL. In series [3], the bioavailability was determined as 3.4%. Moreover, the TXK/ITK in series [7] was found to be 230.63.
Consider `C=CC(=O)N1CCN(C(=O)c2cc(Sc3cnc(NC(=O)C4CC4)s3)c(C)cc2OC)CC1` [Compound 1], for which the concentration for half-maximal inhibition (IC50) is 100 to 1000 nM in series [1]; < 10 nM in series [4]; 100 to 1000 nM in series [5]; 10 nM in series [6]; < 10 nM in series [7]. Also, the AUC(0-t) in series [2] came to 335 ng·h/mL; in series [3], 10.9 ng·h/mL. In addition, the values for the Cmax in series [2] and in series [3] were 613 ng/mL and 97 ng/mL, respectively. Further, the bioavailability in series [2] stood at 20.1%; in series [3] it was 10.9%. Further, in series [7], the TXK/ITK amounted to 7.378.
For `C=CC(=O)N1CCN(C(=O)c2cc(Sc3cnc(NC(=O)c4ccsc4)s3)c(C)cc2OC)CC1` [Compound 90], the IC50 in series [1] is 10 to 100 nM; in series [4], < 10 nM; in series [5], 10 to 100 nM; in series [6], 33 nM; in series [7], < 10 nM. Moreover, the AUC(0-t) in series [2] was found to be 419 ng·h/mL. The Cmax in series [2] was found to be 527 ng/mL. The compound further registered a bioavailability in series [2] of 20%. Moreover, the TXK/ITK in series [7] turned out to be 8.3141.
With `C=CC(=O)N1CCCN(C(=O)c2cc(Sc3cnc(NC(=O)c4ccsc4)s3)c(C)cc2OC)C[C@H]1CC` [Compound 120], the IC50 in series [1] was 1000 to 10000 nM; in series [4], < 10 nM; in series [5], 100 to 1000 nM; in series [7], 100 to 1000 nM. Besides, the TXK/ITK in series [7] amounted to 66.4.
For the compound `C=CC(=O)N1CCN(C(=O)c2cc(Cc3cnc(NC(=O)C4CC4)s3)c(C)cc2OC)CC1` [Compound 65], the IC50 in series [1] was 100 to 1000 nM; in series [4], < 10 nM; in series [5], 10 to 100 nM; in series [7], < 10 nM. For the same compound, the TXK/ITK in series [7] came to 0.392.
Regarding `C=CC(=O)N1CCN(C(=O)c2cc(Sc3cnc(NC(=O)C4CC4)s3)c(C)cc2C(F)(F)F)CC1` [Compound 68], the IC50 was 1000 to 10000 nM in series [1], 10 to 100 nM in series [4], ≥ 10000 nM in series [5] and 100 to 1000 nM in series [7]. In addition, the TXK/ITK in series [7] is listed as 3.6548.
Take `C=CC(=O)N1CCN(C(=O)c2cc(Sc3cnc(NC(=O)C4CC4)s3)c(F)cc2C)C[C@H]1C` [Compound 82]: the IC50 was 100 to 1000 nM in series [1], 10 to 100 nM in series [4], ≥ 10000 nM in series [5] and 100 to 1000 nM in series [7]. Besides, the TXK/ITK in series [7] amounted to 9.2468.
Turning to `C=CC(=O)N1CCCN(C(=O)c2cc(Sc3cnc(NC(=O)C4CC4)s3)ccc2OC)C[C@H]1C` [Compound 77], the 50% inhibitory concentration (IC50) in series [1] was 1000 to 10000 nM; in series [4] it was 10 to 100 nM; in series [5], ≥ 10000 nM; in series [7] it was 1000 to 10000 nM. In addition, the TXK/ITK in series [7] amounted to 95.398.
In the case of `C=CC(=O)N1CC[C@@H](N(C)C(=O)c2cc(Sc3cnc(NC(C)=O)s3)c(C)cc2OC)C1` [Compound 28], the IC50 is 10 to 100 nM in series [1], < 10 nM in series [4], < 10 nM in series [5] and 10 to 100 nM in series [7]. The TXK/ITK in series [7] stood at 5.5925.
For the compound `C=CC(=O)N1CCCN(C(=O)c2cc(Sc3cnc(NC(=O)C(C)(C)C)s3)c(C)cc2OC)CC1` [Compound 57], the IC50 was ≥ 10000 nM in series [1], 100 to 1000 nM in series [4], ≥ 10000 nM in series [5] and ≥ 10000 nM in series [7]. The TXK/ITK in series [7] came to 15.564.
In the case of `C=CC(=O)N1CCCN(C(=O)c2cc(Cc3cnc(NC(=O)C4CC4)s3)c(C)cc2C)C[C@H]1C` [Compound 127], the IC50 in series [1] is ≥ 10000 nM; in series [4], 10 to 100 nM; in series [5], 100 to 1000 nM; in series [7], 100 to 1000 nM. Besides, the TXK/ITK in series [7] is recorded as 7.6.
Turning to `C=CC(=O)N1C[C@@H]2C[C@H]1CN2C(=O)c1cc(Sc2cnc(NC(C)=O)s2)c(C)cc1OC` [Compound 24], the IC50 is 100 to 1000 nM in series [1], < 10 nM in series [4], 10 to 100 nM in series [5] and 10 to 100 nM in series [7]. For the same compound, the TXK/ITK in series [7] came out at 6.6876.
With `C=CC(=O)N1CCCN(C(=O)c2cc(Sc3cnc(NC(=O)C4CC4)s3)c(C)cc2OC)C[C@H]1C` [Compound 44], the IC50 in series [1] is 1000 to 10000 nM; in series [5] it was 100 to 1000 nM; in series [6], 31 nM; in series [7], 100 to 1000 nM. Also, the values for the AUC(0-t) in series [2] and in series [3] were 226 ng·h/mL and 12.5 ng·h/mL, respectively. Further, the Cmax was determined as 368 ng/mL in series [2] and 75 ng/mL in series [3]. The bioavailability amounted to 9.8% in series [2] and 12.5% in series [3].
